The structures appear in SMILES notation.

Among the data in publication PMC8320996, “Negative regulation of melatonin secretion by melatonin receptors in ovine pinealocytes” (PLoS ONE, 2021) are Kd values, retold here.

In this experiment the target is T1, MT1.
T1 construct: gene MTNR1A; native receptors in primary ovine pinealocytes (MT1 and MT2 not resolved)
As to the kind of experiment: saturation radioligand binding on primary ovine pinealocytes, Scatchard analysis. It is filed as cell-based, Ovis aries.

For `COc1ccc2[nH]c(I)c(CCNC(C)=O)c2c1` [2-[^125I]-MLT], the Kd (in general, a measure of binding affinity in units of concentration) was determined as 2.24 ± 1.1 nM.
